Laboratory results as given in PMC10988762, “Inhibition of malaria and babesiosis parasites by putative red blood cell targeting small molecules” (Frontiers in Cellular and Infection Microbiology, 2024).
pIC50: −log10 of the molar value. Like-named read-outs stand apart in the source and are kept apart here. Marks after values point to notes of the source that are not given here.

Key:
P. falciparum strain Dd2 = assay: Inhibitor susceptibility dose-response assay (SYBR-Green I), P. falciparum Dd2; type: cell-based, Plasmodium falciparum; details: Plasmodium falciparum, read-out: IC50 (S.D.), P. falciparum-Dd2
Protocol: (§1) The P. falciparum strains 3D7 and Dd2 were obtained from the Walter and Eliza Hall Institute (Melbourne, Australia) and the Malaria Research and Reference Reagent Resource, respectively. […] B. divergens parasites were maintained and assayed in mixed stages without synchronization.
(§2) Ring-stage P. falciparum (1%-parasitemia starting, 1%-hematocrit) and asynchronous B.divergens (0.5%-parasitemia starting, 3%-hematocrit) were incubated with plated compounds for 72h, and ring-stage P. knowlesi (1%-parasitemia starting, 1%-hematocrit) for 48h, before lysis and staining with dye. To quantify the species-specificity of the inhibitors, we divided the range of IC50s across the 4 test lines by the average IC50 across the same lines: inhibitors with increased scores show species-specific activity and reduced scores indicate broad-spectrum, pan-species activity.

in vitro = details: human
Source text: (§3) We analyzed samples using a volumetric MACSQuant Analyzer Flow Cytometer (Miltenyi Biotec), manually resuspending each row immediately prior to sample uptake. We recorded 10,000 total events for each condition at the instrument-defined low flow rate. We assessed all compounds in 2 separate experiments with blood from different donors. […] All samples were gated for single cell events.

P. knowlesi YH1 strain = assay: microbe, parasite or virus in culture; type: cell-based, Plasmodium knowlesi; details: Plasmodium knowlesi, 48 h, read-out: IC50 (S.D.), P. knowlesi
Protocol: as §1, §2

[1] = system: BdC9 line of B. divergens; assay: Inhibitor susceptibility dose-response assay (SYBR-Green I), B. divergens; type: cell-based, Babesia divergens; details: for pIC50: Babesia divergens, read-out: IC50 (S.D.), B. divergens; for fold higher doses required for 50% inhibition of B. divergens than of the Plasmodium spp. lines: B. divergens vs Plasmodium spp. lines
Protocol: as §1, §2

uninfected RBCs [2] = assay: Cellular phosphatidylserine exposure assay (annexin V flow cytometry);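 note: flow cytometry recording 10,000 events per condition, gated on single cells, with the two experiments using blood from separate donors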
Source text: as §3

293T = system: 293T; set-up: method as in PMID 19662183; details: cellular proliferation ref PMID 19662183; read-out: Micromolar IC50 (293T); cited from earlier work
K562 = system: K562; set-up: method as in PMID 19662183; details: cellular proliferation ref PMID 19662183; read-out: Micromolar IC50 (K562); cited from earlier work
P. falciparum strain 3D7 = assay: Inhibitor susceptibility dose-response assay (SYBR-Green I), P. falciparum 3D7; type: cell-based, Plasmodium falciparum; details: Plasmodium falciparum, read-out: IC50 (S.D.), P. falciparum-3D7
Protocol: as §1, §2

Plasmodium spp. lines = assay: Inhibitor susceptibility assays, summary over the Plasmodium spp. lines; type: cell-based; details: for antiparasitic activity in vitro, in words, Plasmodium spp.: Plasmodium spp. parasites; for pIC50: approximate value given in text for the Plasmodium spp. lines, read-out: IC50 against the Plasmodium spp. lines
Source text: The P. falciparum strains 3D7 and Dd2 were obtained from the Walter and Eliza Hall Institute (Melbourne, Australia) and the Malaria Research and Reference Reagent Resource, respectively. The P. knowlesi YH1 strain adapted for growth in human erythrocytes and the BdC9 line of B. divergens were previously reported ([Lim et al., 2013]; [Rezvani et al., 2022]). All parasite lines were maintained in continuous culture in human erythrocytes O+ purchased from a commercial source (Research Blood Components, Boston USA) in RPMI-1640 medium as described (eg [Rezvani et al., 2022]), typically at 2%-hematocrit. Plasmodium parasites were synchronized using sorbitol (5% [wt/vol] for both P. falciparum and P. knowlesi; for P. knowlesi, with addition of 20 mM Na-HEPES and 0.1 mg/ml BSA) ([Lambros and Vanderberg, 1979]) at least once in the week prior to assays. B. divergens parasites were maintained and assayed in mixed stages without synchronization.
as §2, with “We carried out dose-response assays in 384-well plates (40 µl assay volume) for measurement with SYBR-Green I dye ([Mandt et al., 2019]), with test compounds pre-printed into wells via use of a D300 Digital Dispenser (Hewlett-Packard). Ring-stage” for “Ring-stage”

[3] = experimental logP ref https://go.drugbank.com/drugs/DB08865; cited from earlier work
H2228 = system: H2228; set-up: method as in PMID 30333870; details: cellular proliferation ref PMID 30333870; read-out: Micromolar IC50 (H2228); cited from earlier work
SW1990 = system: SW1990; set-up: method as in PMID 27487486; details: cellular proliferation ref PMID 27487486; read-out: Micromolar IC50 (SW1990); cited from earlier work
MEF = system: MEF; set-up: method as in PMID 29336889; details: cellular proliferation ref PMID 29336889; read-out: Micromolar IC50 (MEF); cited from earlier work
P. falciparum (3D7) = assay: Assay for inhibition of parasite proliferation via RBC-targeting (transient exposure of RBCs, wash, then infection); type: cell-based, Plasmodium falciparum; details: transient vs continued exposure; dose-response format where stated, n=3
Protocol: All plates were frozen for storage before assay. For assay, duplicate plates were preincubated with donor O+ RBCs at 2% hematocrit at 37°C in 50µL for 4-5 hours. Following preincubation, one but not the other plate in each pair was washed 4X in complete RPMI to dilute inhibitor. We transferred RBCs from both washed and unwashed plates to black, clear bottom 96-well plates (Corning Cat. No. 3904) and supplemented these suspensions with MACS-purified P. falciparum (3D7) schizonts for a starting parasitemia of 0.1% - 0.25% at 1% hematocrit. Following 72h incubation in standard culture conditions, samples were processed for SYBR-Green I signal ([Mandt et al., 2019]). […] To identify host-targeting compounds, we compared DMSO-treated to inhibitor-treated samples (Students t-test, paired). We carried out the assay with 1 µM mefloquine (Sigma-Aldrich Cat. No. M2319) as a control for reversible inhibition. All assays were conducted in biological triplicate, with each experiment utilizing different donor RBCs. For select compounds, we carried out this same assay in a dose-response series (n=3 experiments). Following normalization to DMSO-controls, we assessed inhibitor activity following transient exposure of RBCs by Two-Way ANOVA tests for repeated measures (Graphpad Prism v9): high P values indicate support for the null hypothesis that dose-dependent inhibition is not modulated by dilution after exposure, consistent with a direct inhibitory effect of the compounds on RBCs persisting after transient exposure.

Plasmodium berghei = system: Plasmodium berghei; set-up: method as in Wu et al., 2017; details: mouse model of severe malaria with Plasmodium berghei ref Wu et al., 2017; cited from earlier work
uninfected RBCs [4] = details: 5x P. falciparum 3D7-IC50; 24, 48, 72h
Source text: as §3

P. falciparum 3D7 = assay: Co-administration with established antimalarials, IC50 shift; type: cell-based, Plasmodium falciparum; details: P<0.05
Source text: Our experimental compound set is weighted toward kinase inhibitors, reflecting the high degree of small molecule development in this target space.

[5] = DD2, 72h, ring-stage, n=3 experiments (or 2 where indicated with *)
[6] = uninfected RBCs (red blood cells), 1% hematocrit
[7] = 72h, asynchronous, n=3 experiments (or 2 where indicated with *)
[8] = 24h, 5x P. falciparum 3D7-IC50, % of RBCs, mean of 2 experiments
[9] = 5x P. falciparum 3D7-IC50, % of RBCs, mean of 2 experiments
[10] = 72h, 5x P. falciparum 3D7-IC50, % of RBCs, mean of 2 experiments
[11] = 3D7, 72h, ring-stage, n=3 experiments (or 2 where indicated with *)

`Cc1ccc(NC(=O)c2ccc(CN3CC[C@H](N(C)C)C3)c(C(F)(F)F)c2)cc1Nc1nccc(-c2cncnc2)n1` [Bafetinib] showed a pIC50 (P. falciparum strain Dd2; [5]) of 5.52, a hemolysis at 24 h, 5 x P. falciparum 3D7-IC50 (in vitro; [6]) of 1% and a hemolysis at 48 h, 5 x P. falciparum 3D7-IC50 (in vitro; [6]) of 6%. The hemolysis at 72 h, 5 x P. falciparum 3D7-IC50 (in vitro; [6]) was 4%, the pIC50 (P. knowlesi YH1 strain) was 5.70 and the pIC50 [1, 7] was 4.92. The “Phosphatidylserine exposure (%) 24h” value (uninfected RBCs [2]; [8]) was 2%, the “Phosphatidylserine exposure (%) 48h” value (uninfected RBCs [2]; [9]) was 2% and the “Phosphatidylserine exposure (%) 72h” value (uninfected RBCs [2]; [10]) was 4%. For the same compound, the pIC50 (293T) was 8.66, the pIC50 (K562) was 8.96 and the pIC50 (P. falciparum strain 3D7; [11]) was 5.70.
`C[C@@H](Oc1cc(-c2cnn(C3CCNCC3)c2)cnc1N)c1c(Cl)ccc(F)c1Cl` [Crizotinib] showed a pIC50 (P. falciparum strain Dd2; DD2, 72 h) of 6.85, a hemolysis at 24 h, 5 x P. falciparum 3D7-IC50 (in vitro) of 1% and a hemolysis at 48 h, 5 x P. falciparum 3D7-IC50 (in vitro) of 9%. The hemolysis at 72 h, 5 x P. falciparum 3D7-IC50 (in vitro) was 14%, the pIC50 (P. knowlesi YH1 strain) was 6.10 and the “antiparasitic activity in vitro, in words, B. divergens” value [1] was “single-digit micromolar activity”. For the same compound, the pIC50 ([1]; 72 h) was 5.52, the “antiparasitic activity in vitro, in words, Plasmodium spp.” value (Plasmodium spp. lines) was “potent submicromolar activity” and the “Phosphatidylserine exposure (%) 24h” value (uninfected RBCs [2]) was 1%. The “Phosphatidylserine exposure (%) 72h” value (uninfected RBCs [2]) was 5%, the “Phosphatidylserine exposure (%) 48h” value (uninfected RBCs [2]; [9]) was 2% and the “logP (octanol-water partition coefficient), experimental” value [3] was “Crizotinib [drawing 15] (450.3; 1.83^2)”. The pIC50 (H2228) was 6.51 and the pIC50 (P. falciparum strain 3D7; 3D7, 72 h) was 6.15.
Work on `CCCC[C@@H](C=O)NC(=O)[C@H](CC(C)C)NC(=O)OCc1ccccc1` [Calpeptin] yielded a pIC50 (P. falciparum strain Dd2; DD2, 72 h) of 5.89, a hemolysis at 24 h, 5 x P. falciparum 3D7-IC50 (in vitro; [6]) of 0% and a hemolysis at 48 h, 5 x P. falciparum 3D7-IC50 (in vitro; [6]) of 8%. For the same compound, the hemolysis at 72 h, 5 x P. falciparum 3D7-IC50 (in vitro; [6]) was 17%, the pIC50 (SW1990) was 4.13 and the pIC50 (P. knowlesi YH1 strain) was 6.05. The “fold higher doses required for 50% inhibition of B. divergens than of the Plasmodium spp. lines” value [1] was over 30 fold, the pIC50 ([1]; 72 h) was 4.40 and the pIC50 (Plasmodium spp. lines) was about 6.00. The “Phosphatidylserine exposure (%) 24h” value (uninfected RBCs [2]; [8]) was 2%, the “Phosphatidylserine exposure (%) 48h” value (uninfected RBCs [2]; [9]) was 2% and the “Phosphatidylserine exposure (%) 72h” value (uninfected RBCs [2]; [10]) was 5%. It also gave a pIC50 (P. falciparum strain 3D7; 3D7, 72 h) of 6.00.
In the case of `CC(=O)Nc1cccc(-n2c(=O)n(C3CC3)c(=O)c3c(Nc4ccc(I)cc4F)n(C)c(=O)c(C)c32)c1` [Trametinib], the pIC50 (MEF) is listed as 8.32 to 8.80, the pIC50 (P. falciparum strain Dd2; [5]) is listed as 6.96 and the hemolysis at 24 h, 5 x P. falciparum 3D7-IC50 (in vitro; [6]) is listed as -1%. For the same compound, the hemolysis at 48 h, 5 x P. falciparum 3D7-IC50 (in vitro; [6]) was 7%, the hemolysis at 72 h, 5 x P. falciparum 3D7-IC50 (in vitro; [6]) was 15% and the “inhibitory activity following transient exposure of RBCs, in words” value (P. falciparum (3D7)) was “does not persist beyond transient exposure”. The pIC50 (P. knowlesi YH1 strain) was 7.00, the “antiparasitic activity in vitro, in words, B. divergens” value [1] was “single-digit micromolar activity” and the “fold higher doses required for 50% inhibition of B. divergens than of the Plasmodium spp. lines” value [1] was over 30 fold. For the same compound, the pIC50 [1, 7] was 5.22, the “antiparasitic activity in vitro, in words, Plasmodium spp.” value (Plasmodium spp. lines) was “potent submicromolar activity” and the pIC50 (Plasmodium spp. lines) was about 7.00. The “PS exposure on RBCs, in words” value (uninfected RBCs [2]; 5x P. falciparum 3D7-IC50, 24, 48, 72h) was “similarly low levels”, the “Phosphatidylserine exposure (%) 24h” value (uninfected RBCs [2]; [8]) was 2% and the “Phosphatidylserine exposure (%) 48h” value (uninfected RBCs [2]; [9]) was 2%. For the same compound, the “Phosphatidylserine exposure (%) 72h” value (uninfected RBCs [2]; [10]) was 5%, the “survival of infected mice” value (Plasmodium berghei) was “improve survival of infected mice” and the “hemolysis of RBCs, in words” value (uninfected RBCs [4]) was “similarly low levels”. The “reduction in the IC50 of chloroquine in combination with fixed, sublethal dose of test compound” value (P. falciparum 3D7) was at most 2 fold, the “reduction in the IC50 of mefloquine in combination with fixed, sublethal dose of test compound” value (P. falciparum 3D7) was at most 2 fold and the pIC50 (P. falciparum strain 3D7; [11]) was 7.05.
